According to patent US5731452A, “7-thiaprostaglandins and method of production thereof” (Teijin Limited, priority 1994, dated 1998):

test system: rat platelet; test: Rat platelet aggregation inhibiting activity; format: cell-based; conditions: rat platelet rich plasma; adenosine 2-phosphate induced; 37° C., one minute
Procedure: Wistar rats (males, approximately 400 g) were made to fast for one day, the entire blood was removed from the chest artery under anesthesia by ether, then a 1/10 volume of 3.8% aqueous solution of sodium citrate was added and immediately mixed in. The solution was centrifuged at 1000 rpm for 10 minutes, then the upper layer was used as the platelet rich plasma. The lower layer was centrifuged at 3000 rpm for 10 minutes and the upper layer of that was used as the platelet poor plasma. The platelet rich plasma was diluted by the platelet poor plasma to give a number of platelets of 3.5×10^8 /mm^3. This was used for the measurement. Note that the measurement of the platelets was performed using an automatic blood cell counter MEK-4500 (Nihon Koden). The measurement of the platelet aggregation was performed by measuring the turbidity using an NBS HEMA TRACER 801 (M.C. Medical). 90 μl of the platelet solution was inserted in a cuvette, then 5 μl each of the test compounds was added to give the target final concentration. The result was heated for one minute at 37° C., then 5 μl of a 100 μM aqueous solution of adenosine 2-phosphate (M.C. Medical) was added to induce platelet aggregation. The aggregation inhibiting activity was found from the following formula.
Aggregation inhibiting rate (%)={1-(maximum change of turbidity at time of
addition of drug)/(maximum change of turbidity at time of non-addition of
Further, the concentration of the compound giving 50% inhibition was used as the IC50.

Row | SMILES | IC50 [nM]
1 | CCCCC(C)C[C@H](O)/C=C/[C@@H]1C(SCCCCCC(=O)OC)=C(OC(C)=O)C[C@H]1O (stereo partly shown) | 52
2 | CCCCC(C)C[C@H](O)/C=C/[C@@H]1C(SCCCCCC(=O)OC)=C(OC(=O)C(C)C)C[C@H]1O (stereo partly shown) | 500
3 | CCCCC(C)C[C@H](O)/C=C/[C@@H]1C(SCCCCCC(=O)OC)=C(OC(=O)C(C)(C)C)C[C@H]1O (stereo partly shown) | 1280
4 | CCCCOC(=O)CCCCCSC1=C(OC(=O)CCC)C[C@@H](O)[C@@H]1/C=C/[C@@H](O)CC(C)CCCC (stereo partly shown) | 221
5 | CCCCC[C@H](O)/C=C/[C@@H]1C(SCCCCCC(=O)OC)=C(OC(=O)CCC)C[C@H]1O | 629
6 | CCCC(=O)OC1=C(SCCCCCC(=O)OC)[C@@H](/C=C/C(O)CC(C)C)[C@H](O)C1 (stereo partly shown) | 380

Results, then the compound that gave them:

Row | IC50 [nM] | SMILES
7 | 129 | CCCCC(C)C[C@H](O)/C=C/[C@@H]1C(SCCCCCC(=O)OC)=C(OC(=O)CCC)C[C@H]1O (stereo partly shown) [drawing 170]
8 | 284 | CCCC(=O)OC1=C(SCCCCCC(=O)OC)[C@@H](/C=C/[C@@H](O)C2CCCC2)[C@H](O)C1 [drawing 176]
9 | 73 | CCCC(=O)OC1=C(SCCCCCC(=O)OC)[C@@H](/C=C/[C@@H](O)C2CCCCC2)[C@H](O)C1 [drawing 177]
10 | 700 | CCCCC(C)C[C@H](O)/C=C/[C@@H]1C(SCCCCCC(=O)OC)=C(OC(=O)c2ccccc2)C[C@H]1O (stereo partly shown) [drawing 179]
11 | 290 | CCCC(=O)OC1=C(SCCCCCC(=O)OC)[C@@H](/C=C/C(O)CCCc2ccccc2)[C@H](O)C1 (stereo partly shown) [drawing 180]

test system: cell migration induced by MCP-1 in human promonocytic leukemia cell line, THP-1; test: Activity for inhibiting cell migration induced by MCP-1 (THP-1 cells); format: cell-based; conditions: 20 ng/ml recombinant human MCP-1, 37° C., two hours
Procedure: The cell migration induced by the monocyte chemoattractant protein MCP-1/MCAF was measured for the purpose of investigating the activity of the tested compounds shown in Table 1 in inhibiting cell migration by the following manner in accordance with the method of Falk et al. (J. Immunol. Methods, 33, 239-247 (1980)) using human promonocytic leukemia cell line, THP-1 (ATCC TIB203). That is, THP-1 cells diluted to 2×10^6 /ml by 10% fetal calf serum: FCS-containing RPMI-1640 medium (made by Flow Laboratories) were added to the upper chamber (200 μl) of the 96-well microchemotaxis chamber (made by Neuroprobe Inc.) while recombinant human MCP-1 (made by Peprotech Co.) diluted by the same medium to a final concentration of 20 ng/ml was added to the bottom chamber (35 μl). A polycarbonate filter (pore size of 5 μm, PVP-free, made by Neuroprobe Co) was affixed between the two. Incubation was performed at 37° C. in the presence of 5% CO2 for two hours. The filter was taken out, then the cells migrating to the bottom surface of the filter were fixed and stained by a Diff Quick solution (made by International Reagents Co.), then were measured by a plate reader (made by Molecular Device Co.) at a measurement wavelength of 550 nm. The mean value of three wells was determined and used as the indicator of the number of the migrating cells. At this time, the text compounds were added at various concentrations along with the THP-1 cells to the top chambers and the activity in inhibiting cell migration was determined. The percent of inhibition of cell migration was found by dividing the {(number of migrating cells caused by the MCP-1 added to the bottom chamber in the case of the test compound being added to the top chamber)--(number of migrating cells in the case of no test compound being added to the top chamber and no MCP-1 being added to the bottom chamber)} by the {(number of migrating cells caused by the MCP-1 added to the bottom chamber in the case of no test compound being added to the top chamber)--(number of migrating cells in the case of no test compound being added to the top chamber and no MCP-1 being added to the bottom chamber)}.

Row | SMILES | IC50 [nM]
12 | CCCC(=O)OC1=C(SCCCCCC(=O)OC)[C@@H](/C=C/C(O)C(C)(C)c2ccccc2)[C@H](O)C1 (stereo partly shown) [drawing 135] | 100
13 | CCCC(=O)OC1=C(SCCCCCC(=O)OC)[C@@H](/C=C/C(O)C(C)(C)c2ccccc2)[C@H](O)C1 (stereo partly shown) [drawing 136] | 13
14 | CCCC(=O)OC1=C(SCCCCCC(=O)OC)[C@@H](/C=C/C(O)C(C)c2ccccc2)[C@H](O)C1 (stereo partly shown) [drawing 139] | 6
15 | CCCC(=O)OC1=C(SCCCCCC(=O)OC)[C@@H](/C=C/C(O)C(C)c2ccccc2)[C@H](O)C1 (stereo partly shown) [drawing 140] | 0.021
16 | CCCC(=O)OC1=C(SCCCCCC(=O)OC)[C@@H](/C=C/C(O)C(c2ccccc2)c2ccccc2)[C@H](O)C1 (stereo partly shown) [drawing 142] | 1300
17 | CCCC(=O)OC1=C(SCCCCCC(=O)OC)[C@@H](/C=C/C(O)C(c2ccccc2)c2ccccc2)[C@H](O)C1 (stereo partly shown) [drawing 143] | > 5000
18 | CCCC(=O)OC1=C(SCCCCCC(=O)OC)[C@@H](/C=C/C(O)CCCc2ccccc2)[C@H](O)C1 (stereo partly shown) [drawing 146] | 300
19 | CCCC(=O)OC1=C(SCCCCCC(=O)OC)[C@@H](/C=C/C(O)CCCc2ccccc2)[C@H](O)C1 (stereo partly shown) [drawing 147] | 4.3
20 | CCCC(=O)OC1=C(SCCCCCC(=O)OC)[C@@H](/C=C/C(O)Cc2ccc(C)cc2)[C@H](O)C1 (stereo partly shown) [drawing 148] | > 10000
21 | CCCC(=O)OC1=C(SCCCCCC(=O)OC)[C@@H](/C=C/C(O)Cc2ccc(C)cc2)[C@H](O)C1 (stereo partly shown) [drawing 149] | 100
22 | CCCC(=O)OC1=C(SCCCCCC(=O)OC)[C@@H](/C=C/C(O)Cc2ccsc2)[C@H](O)C1 (stereo partly shown) [drawing 151] | 90
23 | CCCC(=O)OC1=C(SCCCCCC(=O)OC)[C@@H](/C=C/C(O)Cc2ccsc2)[C@H](O)C1 (stereo partly shown) [drawing 152] | 0.08
24 | CCCC(=O)OC1=C(SCCCCCC(=O)OC)[C@@H](/C=C/C(O)Cc2cccc(C)c2)[C@H](O)C1 (stereo partly shown) [drawing 153] | 600
25 | CCCC(=O)OC1=C(SCCCCCC(=O)OC)[C@@H](/C=C/C(O)Cc2cccc(C)c2)[C@H](O)C1 (stereo partly shown) [drawing 154] | 1.2
26 | CCCC(=O)OC1=C(SCCCCCC(=O)OC)[C@@H](/C=C/C(O)Cc2cccc(Cl)c2)[C@H](O)C1 (stereo partly shown) [drawing 155] | 8
27 | CCCC(=O)OC1=C(SCCCCCC(=O)OC)[C@@H](/C=C/C(O)Cc2cccc(Cl)c2)[C@H](O)C1 (stereo partly shown) [drawing 156] | 0.4

Results, then the compound that gave them:

Row | IC50 [nM] | SMILES
28 | 33 | CCCC(=O)OC1=C(SCCCCCC(=O)OC)[C@@H](/C=C/C(O)Cc2cccc(OC)c2)[C@H](O)C1 (stereo partly shown) [drawing 157]
29 | 2.3 | CCCC(=O)OC1=C(SCCCCCC(=O)OC)[C@@H](/C=C/C(O)Cc2cccc(OC)c2)[C@H](O)C1 (stereo partly shown) [drawing 158]
30 | 230 | CCCC(=O)OC1=C(SCCCCCC(=O)OC)[C@@H](/C=C/C(O)Cc2cccc(C(=O)OC)c2)[C@H](O)C1 (stereo partly shown) [drawing 159]
31 | 2.3 | CCCC(=O)OC1=C(SCCCCCC(=O)OC)[C@@H](/C=C/C(O)Cc2cccc(C(=O)OC)c2)[C@H](O)C1 (stereo partly shown) [drawing 160]
32 | 190 | CCCC(=O)OC1=C(SCCCCCC(=O)OC)[C@@H](/C=C/C(O)Cc2ccccc2C)[C@H](O)C1 (stereo partly shown) [drawing 161]
33 | 4.4 | CCCC(=O)OC1=C(SCCCCCC(=O)OC)[C@@H](/C=C/C(O)Cc2ccccc2C)[C@H](O)C1 (stereo partly shown) [drawing 162]
34 | < 100 | CCCC(=O)OC1=C(SCCCCCC(=O)OC)[C@@H](/C=C/C(O)Cc2ccc([N+](=O)[O-])cc2)[C@H](O)C1 (stereo partly shown) [drawing 163]
35 | 3.6 | CCCC(=O)OC1=C(SCCCCCC(=O)OC)[C@@H](/C=C/C(O)Cc2ccc([N+](=O)[O-])cc2)[C@H](O)C1 (stereo partly shown) [drawing 164]
36 | < 100 | CCCC(=O)OC1=C(SCCCCCC(=O)OC)[C@@H](/C=C/C(O)Cc2ccc(Cl)cc2)[C@H](O)C1 (stereo partly shown) [drawing 165]
37 | < 1 | CCCC(=O)OC1=C(SCCCCCC(=O)OC)[C@@H](/C=C/C(O)Cc2ccc(Cl)cc2)[C@H](O)C1 (stereo partly shown) [drawing 166]
38 | 4000 | CCCC(=O)OC1=C(CCCCCCC(=O)OC)[C@@H](/C=C/C(O)Cc2ccccc2)[C@H](O)C1 (stereo partly shown) [drawing 167]
39 | 5 | CCCC(=O)OC1=C(CCCCCCC(=O)OC)[C@@H](/C=C/C(O)Cc2ccccc2)[C@H](O)C1 (stereo partly shown) [drawing 168]

same assay, conditions: Homo sapiens, THP-1, 2 h, 20 ng/ml recombinant human MCP-1, 37° C., two hours

Row | IC50 [nM] | SMILES
40 | 0.22 | CCCCC[C@H](O)/C=C/[C@@H]1C(SCCCCCC(=O)OC)=C(OC(=O)[C@H](Cc2ccccc2)NC(=O)OCc2ccccc2)C[C@H]1O
41 | 1.7 | CCCCC(C)(O)C/C=C/[C@@H]1C(SCCCCCC(=O)OC)=C(OC(=O)CCC)C[C@H]1O (stereo partly shown)
42 | 100 | CCCC(=O)OC1=C(SCCCCCC(=O)OC)[C@@H](/C=C/C(O)C2CCCCC2)[C@H](O)C1 (stereo partly shown)
43 | 8.5 | CCCC(=O)OC1=C(SCCCCCC(=O)OC)[C@@H](/C=C/C(O)CCc2ccccc2)[C@H](O)C1 (stereo partly shown)
44 | 120 | CCCC(=O)OC1=C(SCCCCCC(=O)OC)[C@@H](/C=C/[C@@H](O)CCOCC)[C@H](O)C1
45 | 0.14 | CCCCCC(O)CC[C@@H]1C(SCCCCCC(=O)OC)=C(OC(=O)CCC)C[C@H]1O (stereo partly shown)
46 | > 1000 | CCCC(=O)OC1=C(SCCCCCC(=O)OC)[C@@H](/C=C/C(O)c2ccccc2)[C@H](O)C1 (stereo partly shown)
47 | 1.1 | CCCC(=O)OC1=C(SCCCCCC(=O)OC)[C@@H](/C=C/[C@@H](O)Cc2ccccc2)[C@H](O)C1
48 | 6 | CCCCC(C)C[C@H](O)/C=C/[C@@H]1C(SCCC/C=C/C(=O)OC)=C(OC(=O)CCC)C[C@H]1O (stereo partly shown)
49 | 0.51 | CCCC(=O)OC1=C(SCCCCCC(=O)OC)[C@@H](/C=C/[C@@H](O)C2CCCC2)[C@H](O)C1 [drawing 121]
50 | 2.5 | CCCC(=O)OC1=C(SCCCCCC(=O)OC)[C@@H](/C=C/[C@@H](O)C2CCCCC2)[C@H](O)C1 [drawing 123]
51 | 0.81 | CCCCC[C@H](O)/C=C/[C@@H]1C(SCCCCCC(=O)O)=C(OC(=O)CCC)C[C@H]1O [drawing 126]
52 | 810 | CCCCC(C)C[C@H](O)/C=C/[C@@H]1C(SCCCCCC(=O)OC)=C(OC(=O)c2ccccc2)C[C@H]1O (stereo partly shown) [drawing 129]
53 | 8.3 | CCCC(=O)OC1=C(SCCCCCC(=O)OC)[C@@H](/C=C/C(O)Cc2ccccc2)[C@H](O)C1 (stereo partly shown) [drawing 131]
54 | 3 | CCCC(=O)OC1=C(SCCCCCC(=O)OC)[C@@H](/C=C/C(O)[C@H](C)c2ccccc2)[C@H](O)C1 (stereo partly shown) [drawing 137]
55 | 2.1 | CCCCC(C)C[C@H](O)/C=C/[C@@H]1C(SCCCOCC(=O)OC)=C(OC(=O)CCC)C[C@H]1O (stereo partly shown) [drawing 141]
